Test results: PubChem BioAssay AID2060501 (Molecular Pharmacology Branch, DTP, NCI, 2025)
“And” between values parts separate entries of the source, which are not always exact repeats. Equal entries are not always repeated. One block for each compound: values may come before it.

System: 282377-053-R-J1-PDC complex spheroids, viability
Assay: Anticancer human tumor 282377-053-R-J1-PDC patient-derived colon adenocarcinoma cell line growth inhibition [GQUAD]
Settings: for viability, T/C: stronger effect = lower value
Text: DNA G-quadruplex Stabilizer Agents in Combinations in Complex Spheroids
A high-throughput screen of multi-cell type tumor spheroids was designed to identify active combinations of DNA G-quadruplex stabilizer agents and targeted small molecules. Complex spheroids include a stromal component modeled by human endothelial cells (HUVEC) and fibroblasts modeled by human mesenchymal stem cells (MSCs). The concentration ranges selected for each drug and investigational agent were based upon clinically achievable concentrations if the clinical Cmax of the agent was known.
Compounds. The drugs and investigational agents: pidnarulex (CX-5461; NSC782164), APTO-253 (NSC789042), BRACO-19 (NSC847499), peposertib (NSC802822), ceralasertib (NSC780249), elimusertib (NSC800525), camonsertib (NSC841442), AZD-1390 (NSC803789), olaparib (NSC753686), talazoparib (NSC767125), ART-558 (NSC835418), sotorasib (NSC818433), MRTX-1133 (NSC836407), SN-38 (NSC673596), topotecan (NSC609699), etoposide (NSC141540), doxorubicin (NSC123127), gemcitabine (NSC613327), 5-fluorouracil (NSC19893), paclitaxel (NSC125973), vemurafenib (NSC761431), panobinostat (NSC761190), R-306465 (JNJ-16241199; NSC773264), adavosertib (NSC754352), TP-3654 (NSC805149), carboplatin (NSC241240), KSQ-4279 (NSC840948), and staurosporine (NSC755774) were obtained from the National Cancer Institute (NCI) Developmental Therapeutics Program Chemical Repository (34). The FDA-approved anticancer drug set is available from the NCI Developmental Therapeutics Program. […] The stock solutions were prepared in dimethyl sulfoxide (DMSO, Sigma-Aldrich, St. Louis, MO, cat. D2650) at 800-fold the tested concentration and stored at -70 degrees C prior to their use. All drugs and investigational agents were tested over a range starting from a high concentration at or near the clinical Cmax and decreasing in half-log increments. If the clinical Cmax for an agent had not been determined, the highest concentration tested was 10 microM.
2.3 Cell Culture. All cells were maintained in an incubator at 37 degrees C and 5% CO2 with 95% humidity. The PDC lines were cultured according to standard operating procedures established by the NCI PDMR. All PDCs were thawed and cultured in Matrigel-coated flasks prepared with a working solution of 1X Ham's F-12 nutrient mix, without supplementation (Invitrogen, cat. 11765054), 100 U/mL penicillin-streptomycin (Invitrogen, cat. 15140122), and 2.5% Matrigel (Corning Inc., cat. 354248) for the first three passages. The 857933-349-R-J2-PDC line was cultured in 6C/Colon 1B media, which includes advanced DMEM/F-12 (Thermo Fisher Scientific, cat. 12634028), 10 mM HEPES (Thermo Fisher Scientific, cat. 15630080), 1X GlutaMAX supplement (Thermo Fisher Scientific, cat. 35050061), 0.1 mg/mL primocin (InvivoGen, cat. ant-pm-2), 10% defined fetal bovine serum, heat inactivated (HyClone Laboratories Inc., cat. SH30070.03HI), 50% L-WRN conditioned media (ATCC, cat. CRL-3276), 1.25 mM N-Acetyl-L-cysteine (Sigma-Aldrich, cat. A9165), 10 mM nicotinamide (Sigma-Aldrich, cat. N0636), 1X B-27 supplement (Thermo Fisher Scientific, cat. 17504044), 1X N-2 supplement (Thermo Fisher Scientific, cat. 17502048), 10 microM Y-27632 dihydrochloride (Tocris Bioscience, cat. 1254), and 50 ng/mL human EGF recombinant protein (Thermo Fisher Scientific, cat. PHG0311). The 485176-168-R4-J1-PDC line was cultured in Panc media, which includes all 6C/Colon 1B media components plus 100 ng/mL human FGF-10 (Thermo Fisher Scientific, cat. 100-26), 500 nM SB-431542 (Selleckchem, cat. S1067), and gastrin (Tocris, cat. 3006).
[…]

[1] = compound alone, run of 04/22/2024
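Also: spheroids exposed to compounds for 7 days before readout.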
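For viability, T/C in this document: percent of vehicle DMSO control viability with 100% = untreated-like growth.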

- IC50 [1]: > 10 µM
Compound: CN(C)c1ccc(Nc2c3ccc(NC(=O)CCN4CCCC4)cc3nc3cc(NC(=O)CCN4CCCC4)ccc23)cc1
- viability, T/C (compound 0.1 µM): 96.9% [middle of 12 runs]
- viability, T/C (compound 3.16 µM): 99.2% [middle of 12 runs]

- IC50 (curve of compound): > 10 µM
Compound: COc1cc(C2c3cc4c(cc3C(OC3OC5COC(C)OC5C(O)C3O)C3COC(=O)C23)OCO4)cc(OC)c1O (stereo not drawn)
- viability, T/C (compound 0.0316 µM): 111% and 82.8% and 104%
- viability, T/C (compound 0.1 µM): 90.5% and 97% and 92.2%
- viability, T/C (compound 0.316 µM): 111% and 90.5% and 98.7%
- viability, T/C (compound 1 µM): 99.6% and 110% and 104%
- viability, T/C (compound 3.16 µM): 61.1% and 67.3% and 96.7%
- viability, T/C (compound 10 µM): 56.5% and 50% and 72.2%

- IC50 (curve of compound): > 10 µM
Compound: COc1ccc([C@@H](O)c2cc(-c3ncnc4cc(N5CCOCC5)ccc34)c(F)cc2Cl)nn1
- viability, T/C (compound 0.0316 µM): 86.5% and 96.3% and 89.9%
- viability, T/C (compound 0.1 µM): 85.6% and 80.6% and 90.8%
- viability, T/C (compound 0.316 µM): 74.5% and 109% and 86.2%
- viability, T/C (compound 1 µM): 67.9% and 79.6% and 93.6%
- viability, T/C (compound 3.16 µM): 68.9% and 82.5% and 101%
- viability, T/C (compound 10 µM): 57.6% and 61.8% and 71.7%

- IC50 (curve of compound): 1.13 µM and 1.94 µM and 1.01 µM
Compound: COc1cccc2c1C(=O)c1c(O)c3c(c(O)c1C2=O)CC(O)(C(=O)CO)CC3OC1CC(N)C(O)C(C)O1 (stereo not drawn)
- viability, T/C (compound 0.0316 µM): 109% and 108% and 110%
- viability, T/C (compound 0.1 µM): 110% and 102% and 101%
- viability, T/C (compound 0.316 µM): 92.8% and 109% and 77.7%
- viability, T/C (compound 1 µM): 54.2% and 77.3% and 56%
- viability, T/C (compound 3.16 µM): 15.7% and 29.5% and 13.9%
- viability, T/C (compound 10 µM): 1.35% and 2.21% and 0.95%

- IC50 (curve of compound): > 10 µM and 5.29 µM
Compound: COc1ncnc(C2CC2)c1-c1ncc2cnn(Cc3ccc(-c4nc(C(F)(F)F)cn4C(C)C)cc3)c2n1
- viability, T/C (compound 0.0316 µM): 101% and 109% and 104%
- viability, T/C (compound 0.1 µM): 102% and 106% and 78.5%
- viability, T/C (compound 0.316 µM): 102% and 82.9% and 81.3%
- viability, T/C (compound 1 µM): 109% and 91.4% and 78.3%
- viability, T/C (compound 3.16 µM): 106% and 86.4% and 75.8%

- IC50 (compound alone, run of 04/16/2024): > 10 µM and 8.36 µM and 8.06 µM
- IC50 [1]: > 10 µM and 9.04 µM and 7.37 µM
Compound: Cc1[nH]c2ccc(F)cc2c1-c1nc2c3cccnc3c3ncccc3c2[nH]1
- viability, T/C (compound 0.0316 µM): 91.7% [middle of 12 runs]

- IC50 (curve of compound): > 0.316 µM and 0.185 µM and 0.145 µM
Compound: Cc1[nH]c2ccccc2c1CCNCc1ccc(/C=C/C(=O)NO)cc1
- viability, T/C (compound 0.000999 µM): 108% and 110% and 106%
- viability, T/C (compound 0.00316 µM): 88.2% and 101% and 95.5%
- viability, T/C (compound 0.00999 µM): 84.7% and 96.6% and 98.5%
- viability, T/C (compound 0.0316 µM): 97.4% and 118% and 105%
- viability, T/C (compound 0.0999 µM): 115% and 98.6% and 72.2%

- IC50 (curve of compound): > 10 µM
Compound: Cc1cccc(N(C)C(=O)C2C(O)CCN2c2nc(C)cc(C(F)(F)F)c2C#N)c1 (stereo not drawn)
- viability, T/C (compound 0.0316 µM): 121% and 97.5% and 105%
- viability, T/C (compound 0.1 µM): 83% and 85.8% and 99.7%
- viability, T/C (compound 0.316 µM): 103% and 89.3% and 99.5%
- viability, T/C (compound 1 µM): 89.3% and 97.7% and 105%
- viability, T/C (compound 3.16 µM): 98.2% and 99.2% and 94.4%
- viability, T/C (compound 10 µM): 80.9% and 80.7% and 90.8%

Compound: Cc1cnc(CNC(=O)c2c(=O)c3ccc(N4CCCN(C)CC4)nc3n3c2sc2ccccc23)cn1
- viability, T/C (compound 1 µM): 64.5% [middle of 12 runs]
- viability, T/C (compound 3.16 µM): 57.2% [middle of 12 runs]
- viability, T/C (compound 10 µM): 55.2% [middle of 12 runs]

- IC50 (curve of compound): > 0.316 µM
Compound: Cn1ncnc1[C@H]1c2n[nH]c(=O)c3cc(F)cc(c23)N[C@@H]1c1ccc(F)cc1
- viability, T/C (compound 0.000999 µM): 109% and 105% and 89.3%
- viability, T/C (compound 0.00316 µM): 106% and 88.2% and 91.4%
- viability, T/C (compound 0.00999 µM): 106% and 94.9% and 99.7%
- viability, T/C (compound 0.0316 µM): 85% and 109% and 106%
- viability, T/C (compound 0.0999 µM): 106% and 97.6% and 113%
- viability, T/C (compound 0.316 µM): 96.5% and 113% and 105%

- IC50 (curve of compound): 0.235 µM and 0.382 µM and 0.219 µM
Compound: Nc1ccn(C2OC(CO)C(O)C2(F)F)c(=O)n1 (stereo not drawn)
- viability, T/C (compound 0.0316 µM): 97% and 108% and 101%
- viability, T/C (compound 0.1 µM): 76% and 78.1% and 78.7%
- viability, T/C (compound 0.316 µM): 37.7% and 50.4% and 35.4%
- viability, T/C (compound 1 µM): 34.4% (2×) and 26.7%
- viability, T/C (compound 3.16 µM): 25.4% and 37.8% and 20.9%
- viability, T/C (compound 10 µM): 18.3% and 20.1% and 17.3%

Compound: O=C(NO)c1cnc(N2CCN(S(=O)(=O)c3ccc4ccccc4c3)CC2)nc1
- viability, T/C (compound 0.0316 µM): 58.1% and 117% and 100%
- viability, T/C (compound 0.1 µM): 20% and 107% and 82%
- viability, T/C (compound 0.316 µM): 22.4% and 79.1% and 64.8%
- viability, T/C (compound 1 µM): 21.8% and 2.34% and 0.84%
- viability, T/C (compound 3.16 µM): 24.6% and 0.24% and 0.11%
- viability, T/C (compound 10 µM): 25.1% and 0.26% and 0.18%

- IC50 (curve of compound): > 10 µM
Compound: O=C(c1cc(Cc2n[nH]c(=O)c3ccccc23)ccc1F)N1CCN(C(=O)C2CC2)CC1
- viability, T/C (compound 0.0316 µM): 98.7% and 97.4% and 108%
- viability, T/C (compound 0.1 µM): 111% and 100% and 110%
- viability, T/C (compound 0.316 µM): 100% and 98.7% and 102%
- viability, T/C (compound 1 µM): 93.8% and 105% and 109%
- viability, T/C (compound 3.16 µM): 116% and 100% and 111%
- viability, T/C (compound 10 µM): 106% and 82.9% and 90.7%

- IC50 (curve of compound): > 10 µM
Compound: O=c1[nH]cc(F)c(=O)[nH]1
- viability, T/C (compound 0.0316 µM): 94.9% and 109% and 94.2%
- viability, T/C (compound 0.1 µM): 107% (2×) and 88.7%
- viability, T/C (compound 0.316 µM): 107% and 102% and 96.5%
- viability, T/C (compound 1 µM): 88.8% and 92.9% and 94.9%
- viability, T/C (compound 3.16 µM): 87.9% and 80.7% and 79.4%
- viability, T/C (compound 10 µM): 80.8% and 69.7% and 70.6%
